# Assay results published in article PMC9284491 (Nature Communications, 2022).
# “Also recorded” adds a separate entry of the source. Where two headings read alike, the source gives them in different places.
# How the values were obtained:
# [1] = system: ER activity signature (87 genes); assay: ER activation score by GSVA of RNA-seq from paired tumor biopsies; assay type: in vivo, human
# From the text: Total RNA was extracted from FFPE tissue (slides of 10 μm). A targeted-enrichment RNA-seq approach was applied utilizing KAPA RNA HyperPrep and whole exome […] kits (Roche) followed by the generation of sequencing reads with NextSeq 500 (Illumina). RNA-seq FASTQ files were processed with STAR aligner and Cufflinks to generate gene-level fragments per kilobase of transcript per million mapped reads (FPKM)[34],[47],[48]. Those FPKM values were converted to the gene-level estimation of expression in transcripts per million (TPM). The TPM data were then quantile-normalized and log2-transformed. GSVA was employed to calculate the ER activation score by using the ER activity signature (87 genes)[31]. […] Results were analyzed using descriptive statistics.
# [2] = system: ER+/HER2− advanced breast cancer; assay: Antitumor activity per RECIST v1.1 (ORR, CBR, best overall response); assay type: in vivo, human; conditions: Part A, local review, n = 16
# CYP3A = assay: 4β-hydroxycholesterol ratio, induction/inhibition effect on CYP3A; assay type: in vivo, human; conditions: ≥200 mg QD
# [3] = Amcenestrant plasma pharmacokinetics (LC-MS/MS, non-compartmental analysis); assay type: in vivo, human; conditions: for AUC(0-t) / Cmax / Tmax: human, plasma, oral
# Experimental: To evaluate pharmacokinetics in Part A, venous blood samples were collected pre-dose and at regular intervals on cycle 1, day 1 (up to 48 h), on day 3 (up to 24 h), and on day 22 (up to 24 h). […] The validated range was 5 ng/mL to 5000 ng/mL.
# In Part B, venous blood samples were collected pre-dose and at regular intervals on cycle 1, day 1 (up to 24 h), and on day 22 (up to 24 h).
# NCA was performed using Phoenix® software.
# Ki67 = assay: Paired tumor biopsy IHC, Ki67 positive cells; assay type: in vivo, human; conditions: cycle 2, day 28; n = 7; range −30 to +30%
# Experimental: Staining was evaluated in tumor cells only.
# Results were analyzed using descriptive statistics.
# ER = system: ER; set-up: method as in PMID 31721572; conditions: in vitro, preclinical, cited from earlier work
# [4] = set-up: method as in PMID 31721572; conditions: preclinical; cited from earlier work
# [5] = Part A, repeated QD, Cycle 1 Day 22, fasting, 20 mg, N 3
# [6] = Part A, repeated QD, Cycle 1 Day 22, fasting, 150 mg, N 2
# [7] = Part A, repeated QD, Cycle 1 Day 22, fasting, 200 mg, N 3
# [8] = Part A, repeated QD, Cycle 1 Day 22, fasting, 400 mg, N 3
# [9] = Part A, repeated QD, Cycle 1 Day 22, fasting, 600 mg, N 3
# [10] = Part B, 400 mg QD, Day 22, N 13
smiles,measurement,setting,value
"O=C(O)c1ccc2c(c1)CCCC(c1ccc(Cl)cc1Cl)=C2c1ccc(O[C@H]2CCN(CCCF)C2)cc1 [amcenestrant, 6-(2,4-Dichlorophenyl)−5-[4-[(3S)−1-(3-fluoropropyl)pyrrolidin-3-yl]oxyphenyl]−8,9-dihydro-7H-benzo[7]annulene-2-carboxylic acid]","ER activation score by GSVA, median change from screening","[1]; cycle 2, day 28, n = 5, range −1.1 to +0.4",−0.4
same,"ER activation score, median change from screening","[1]; patients who showed clinical benefit, n = 4, range −1.1 to 0",−0.6
same,"ER activation score, change from screening",[1]; the patient with no clinical benefit,+0.4
same,objective response rate (ORR),[2],6.3%
same,"stable disease (SD), patients",[2],50%
same,effect on CYP3A liver enzyme activity,CYP3A,can induce cytochrome P450 (CYP) 3 A liver enzyme activity
same,total variability of exposure,[3]; 400 mg dose,< 40%
same,dose proportionality of exposure,"[3]; 20–600 mg QD, single or multiple administrations",did not deviate significantly from dose proportionality; also recorded: exposure increased proportionally with doses up to 600 mg
same,accumulation on day 22,"[3]; Part A, doses ≥400 mg QD",No accumulation was observed
same,delay of median tmax by food,"[3]; Part A, moderate fat breakfast",≈ 1 h
same,food effect on exposure,"[3]; Part A, moderate fat breakfast",modestly increased exposure
same,"CLss/F, Geometric mean (CV%)",[3]; [5],14.8 (75.8) L/h
same,"CLss/F, Mean ± SD",[3]; [5],18.0 ± 13.7 L/h
same,"Ctrough, Mean ± SD",[3]; [5],12.6 ± 13.6 ng/mL
same,"CLss/F, Geometric mean (CV%)",[3]; [6],9.99 (46.3) L/h
same,"CLss/F, Mean ± SD",[3]; [6],10.6 ± 4.89 L/h
same,"Ctrough, Geometric mean (CV%)",[3]; [6],134 (15.7) ng/mL
same,"Ctrough, Mean ± SD",[3]; [6],135 ± 21.2 ng/mL
same,"CLss/F, Geometric mean (CV%)",[3]; [7],14.9 (28.0) L/h
same,"CLss/F, Mean ± SD",[3]; [7],15.3 ± 4.30 L/h
same,"Ctrough, Geometric mean (CV%)",[3]; [7],115 (73.0) ng/mL
same,"Ctrough, Mean ± SD",[3]; [7],140 ± 102 ng/mL
same,"CLss/F, Geometric mean (CV%)",[3]; [8],13.5 (95.7) L/h
same,"CLss/F, Mean ± SD",[3]; [8],18.1 ± 17.4 L/h
same,"Ctrough, Geometric mean (CV%)",[3]; [8],245 (79.3) ng/mL
same,"Ctrough, Mean ± SD",[3]; [8],397 ± 315 ng/mL
same,"CLss/F, Geometric mean (CV%)",[3]; [9],14.4 (26.9) L/h
same,"CLss/F, Mean ± SD",[3]; [9],14.7 ± 3.96 L/h
same,"Cmax, Geometric mean (CV%)",[3]; [9],5510 (17.3) ng/mL
same,"Ctrough, Geometric mean (CV%)",[3]; [9],350 (88.2) ng/mL
same,"Ctrough, Mean ± SD",[3]; [9],449 ± 396 ng/mL
same,"Cmax, Geometric mean (CV%)","[3]; Part B, 400 mg QD, Day 1, N 16",5460 (46.8) ng/mL
same,"Tlag, Median","[3]; Part B, 400 mg QD, Day 1, N 16",0 h
same,"CLss/F, Geometric mean (CV%)",[3]; [10],9.90 (41.0) L/h
same,"CLss/F, Mean ± SD",[3]; [10],10.6 ± 4.35 L/h
same,apparent total clearance from plasma at steady state (CLss/F),"[3]; Part B, 400 mg QD, day 22",10.6 L/h
same,coefficient of variation for AUC0-24h,"[3]; Part B, 400 mg QD, day 22",37.5%
same,coefficient of variation for Cmax,"[3]; Part B, 400 mg QD, day 22",28.0%
same,AUC(0-t),"[3]; 400 mg, Part B, 400 mg QD, Day 1, N 16, read-out: AUC0-24, Geometric mean (CV%)",44800 ng·h/mL
same,AUC(0-t),"[3]; 400 mg, Part B, 400 mg QD, Day 1, N 16, read-out: AUC0-24, Mean ± SD",50900 ± 26000 ng·h/mL
same,Cmax,"[3]; 400 mg, Part B, 400 mg QD, Day 1, N 16, read-out: Cmax, Mean ± SD",6020 ± 2810 ng/mL
same,AUC(0-t),"[3]; 400 mg, Part B, 400 mg QD, Day 22, N 13, read-out: AUC0-24, Mean ± SD",43200 ± 16200 ng·h/mL
same,Cmax,"[3]; 400 mg, Part B, 400 mg QD, Day 22, N 13, read-out: Cmax, Geometric mean (CV%)",4220 ng/mL
same,Cmax,"[3]; 400 mg, Part B, 400 mg QD, Day 22, N 13, read-out: Cmax, Mean ± SD",4380 ± 1230 ng/mL
same,Tmax,"[3]; Part A, single dose day 1, starting from the 150-mg dose, read-out: median time to maximum concentration [tmax]",~3 h
same,Tmax,"[3]; Part B, 400 mg QD, Day 1, N 16, read-out: tmax, Median",3.98 h
same,median change from screening in percentage of Ki67 positive cells,Ki67,−8%
same,ER degradation efficacy,ER,98%
same,EC50,ER; read-out: ER degradation potency,0.2 nM
same,metabolic stability,[4],metabolically stable
